Where two headings read alike, the source gives them in different places.
Experiments:
Fusarium graminearum = experiment: microbe, parasite or virus in culture; type: cell-based; conditions: for inhibition at 50 µM: Fusarium graminearum, 72 h, read-out: % inhibition of the fungal growth of Fusarium graminearum at 50 μM
Phytophthora infestans = type: in vivo
Alternaria solani = experiment: Alternaria test (tomato)/protective; type: in vivo
Procedure: (§1) Solvent: 49 parts by weight of N,N-dimethylformamide
(§2) Emulsifier: 1 part by weight of alkylaryl polyglycol ether
To produce a suitable preparation of active compound, 1 part by weight of active compound is mixed with the stated amounts of solvent and emulsifier, and the concentrate is diluted with water to the desired concentration.
To test for protective activity, young tomato plants are sprayed with the active compound preparation at the stated application rate. 1 day after the treatment, the plants are inoculated with a spore suspension of Alternaria solani and then remain at 100% rel. humidity and 22° C. for 24 h. The plants then remain at 96% rel. atmospheric humidity and a temperature of 20° C.
(§3) Evaluation is carried out 7 days after the inoculation. 0% means an efficacy which corresponds to that of the control, whereas an efficacy of 100% means that no infection is observed.

Pyrenophora teres = Pyrenophora teres test (barley)/protective; type: in vivo
Procedure: as §1, §2
(§4) To produce a suitable preparation of active compounds, 1 part by weight of active compound is mixed with the stated amounts of solvent and emulsifier, and the concentrate is diluted with water to the desired concentration.
(§5) To test for protective activity, young barley plants are sprayed with the active compound preparation at the stated application rate. 1 day after the treatment, the plants are inoculated with an aqueous spore suspension of Pyrenophora teres and then remain at 100% rel. atmospheric humidity and 22° C. for 48 h. The plants are then placed in a greenhouse at 80% rel. atmospheric humidity and a temperature of 20° C.
(§6) Evaluation is carried out 7-9 days after the inoculation. 0% means an efficacy which corresponds to that of the control, whereas an efficacy of 100% means that no infection is observed.

DON/AcDON production = experiment: microbe, parasite or virus in culture; type: cell-based, Fusarium graminearum; conditions: 7 days at 28° C.; for inhibition at 50 µM: Fusarium graminearum, 168 h
Leptosphaeria nodorum = Leptosphaeria nodorum test (wheat)/protective; type: in vivo
Procedure: as §1, §2, §4
as §5, with “wheat” for “barley”, “Leptosphaeria nodorum” for “Pyrenophora teres”, “90%” for “80%”, “22°” for “20°”
as §6

Sphaerotheca fuliginea = experiment: Sphaerotheca test (cucumber)/protective; type: in vivo
Procedure: as §1, §2, §4
To test for protective activity, young cucumber plants are sprayed with the active compound preparation at the stated application rate. 1 day after the treatment, the plants are inoculated with a spore suspension of Sphaerotheca fuliginea. The plants are then placed in a greenhouse at 70% rel. atmospheric humidity and a temperature of 23° C.
as §3

Botrytis cinerea = experiment: Botrytis test (bean)/protective; type: in vivo; conditions: 100 ppm active compound, protective, evaluation 2 days after inoculation
Procedure: Solvents: 24.5 parts by weight of acetone
• 24.5 parts by weight of dimethylacetamide Emulsifier: 1 part by weight of alkylaryl polyglycol ether
(§7) To produce a suitable preparation of active compound, 1 part by weight of active compound is mixed with the stated amounts of solvents and emulsifier, and the concentrate is diluted with water to the desired concentration.
To test for protective activity, young plants are sprayed with the active compound preparation at the stated application rate. After the spray coating has dried on, 2 small pieces of agar colonized by Botrytis cinerea are placed onto each leaf. The inoculated plants are placed in a dark chamber at about 20° C. and 100% relative atmospheric humidity.
2 days after the inoculation, the size of the infected areas on the leaves is evaluated. 0% means an efficacy which corresponds to that of the control, whereas an efficacy of 100% means that no infection is observed.

Venturia inaequalis = experiment: Venturia test (apple)/protective; type: in vivo; conditions: 100 ppm active compound, protective, evaluation 10 days after inoculation
Procedure: Solvents: 24.5 parts by weight of acetone • 24.5 parts by weight of dimethylacetamide Emulsifier: 1 part by weight of alkylaryl polyglycol ether
as §7
To test for protective activity, young plants are sprayed with the active compound preparation at the stated application rate. After the spray coating has dried on, the plants are inoculated with an aqueous conidia suspension of the apple scab pathogen Venturia inaequalis and then remain in an incubation cabin at about 20° C. and 100% relative atmospheric humidity for 1 day.
The plants are then placed in a greenhouse at about 21° C. and a relative atmospheric humidity of about 90%.
Evaluation is carried out 10 days after the inoculation. 0% means an efficacy which corresponds to that of the control, whereas an efficacy of 100% means that no infection is observed.

[1] = log P determination by HPLC retention times (alkan-2-one calibration)
[2] = log P(HCOOH), HCOOH, preparation examples in the text
[3] = log P, values marked [b] in Table 1
[4] = 500 ppm active compound, wheat, protective, evaluation 7-9 days after inoculation
[5] = 500 ppm active compound, tomato, protective, evaluation 7 days after inoculation
[6] = 500 ppm active compound, barley, protective, evaluation 7-9 days after inoculation

SMILES	% inhibition of the fungal growth of Fusarium graminearum at 50 μM (Fusarium graminearum)	efficacy in % (Phytophthora infestans; in vivo)	efficacy in % (Alternaria solani; in vivo)	efficacy in % (Pyrenophora teres; in vivo)	% inhibition of DON/AcDON at 50 μM (DON/AcDON production)	efficacy in % (Leptosphaeria nodorum; in vivo)	further results
C[C@@H](O)C(=O)Nc1cc(-c2c(-c3ccsc3)nn3c2CCCC3)ccn1 [Example 66]	50%	80%	70%	95%	98%		
c1ccc(-c2nn3c(c2-c2ccncc2)CCC3)cc1 [Example 10]	87%	70%	70%	80%	100%	80%	efficacy in % (Sphaerotheca fuliginea; in vivo): 94%
O=C(Cc1ccccc1)Nc1cc(-c2c(-c3ccccc3)nn3c2CCCC3)ccn1 [Example 35]		80%	94%	78%		90%	efficacy in % (Botrytis cinerea): 96%; efficacy in % (Venturia inaequalis): 95%
COCC(=O)Nc1cc(-c2c(-c3ccsc3)nn3c2CCCC3)ccn1 [Example 60]	100%			90%	100%	78%	efficacy in % (Sphaerotheca fuliginea; in vivo): 90%
COC(=O)Nc1cc(-c2c(-c3ccsc3)nn3c2CCCC3)ccn1 [Example 67]	60%	70%	80%	95%	100%		
Fc1cccc(-c2nn3c(c2-c2ccncc2)CCC3)c1 [Example 44]	61%	70%	80%	90%	100%		
CC(C)Nc1cc(-c2c(-c3ccccc3)nn3c2CCC3)ccn1 [Example 70, 4-[2-(Phenyl)-5,6-dihydro-4H-pyrrolo[1,2-b]pyrazol-3-yl]-N-isopropylpyridine-2-amine]							chromatographic logP [1, 2]: 1.21; chromatographic logP [1, 3]: 2.69; efficacy in % (Leptosphaeria nodorum; [4]): 90%; efficacy in % (Phytophthora infestans; [5]): 95%; efficacy in % (Alternaria solani; [5]): 90%; efficacy in % (Pyrenophora teres; [6]): 80%; efficacy in % (Sphaerotheca fuliginea; 500 ppm active compound, cucumber, protective, evaluation 7 days after inoculation): 94%; efficacy in % (Venturia inaequalis): 100%
FC(F)(F)c1cccc(-c2nn3c(c2-c2ccncc2)CCC3)c1 [Example 42]	100%				98%		
Fc1cc(-c2c(-c3ccccc3)nn3c2CCC3)ccn1 [Example 61, 3-(2-Fluoropyridin-4-yl)-2-phenyl-5,6-dihydro-4H-pyrrolo[1,2-b]pyrazole]							chromatographic logP [1, 2]: 2.53; chromatographic logP [1, 3]: 2.53; inhibition at 50 µM (Fusarium graminearum): 0%; efficacy in % (Pyrenophora teres; [6]): 70%; inhibition at 50 µM (DON/AcDON production): 100%
CC1CCc2c(-c3ccncc3)c(-c3ccc(F)cc3)nn21 (centres unmarked) [Example 74]		90%	95%	100%		88%	efficacy in % (Botrytis cinerea): 100%; efficacy in % (Sphaerotheca fuliginea; in vivo): 93%; efficacy in % (Venturia inaequalis): 95%
c1cc(-c2c(-c3ccsc3)nn3c2CCC3)ccn1 [Example 46]	52%	70%	70%	70%	100%		
Cc1cc(-c2c(-c3ccc(F)cc3)nn3c2CCCC3)ccn1 [Example 6]	70%		95%	70%	99%	70%	log P ([1]; values marked [a] in Table 1): 1.22^[a];; log P ([1]; values marked [b] in Table 1): 2.67^[b]
CC(C)(C)OC(=O)Nc1cc(-c2c(-c3ccc(F)cc3)nn3c2CCCC3)ccn1 [Example 16]	0%				93%		
Nc1cc(-c2c(-c3ccccc3)nn3c2CCCC3)ccn1 [Example 14]	24%	70%			93%		
Nc1cc(-c2c(-c3ccc(F)cc3)nn3c2CCCC3)ccn1 [Example 3, 4-[2-(4-Fluorophenyl)-4,5,6,7-tetrahydropyrazolo[1,5-a]pyridin-3-yl]pyridine-2-amine]							chromatographic logP [1, 2]: 1.21; chromatographic logP ([1]; log P, values marked [a] in Table 1): 1.21; chromatographic logP [1, 3]: 2.05; efficacy in % (Leptosphaeria nodorum; [4]): 89%; inhibition at 50 µM (Fusarium graminearum): 30%; efficacy in % (Phytophthora infestans; [5]): 90%; efficacy in % (Alternaria solani; [5]): 95%; efficacy in % (Pyrenophora teres; [6]): 95%; inhibition at 50 µM (DON/AcDON production): 94%
Clc1ccc(-c2nn3c(c2-c2ccncc2)CCC3)cc1 [Example 11]	92%	80%		70%	100%	70%	efficacy in % (Sphaerotheca fuliginea; in vivo): 88%
Cc1ccc(-c2nn3c(c2-c2ccncc2)CCC3)cc1 [Example 41]	100%	70%	70%	95%	98%		
Fc1cc(-c2c(-c3ccc(Cl)cc3)nn3c2CCC3)ccn1 [Example 13]	17%			80%	96%		
Fc1ccc(-c2nn3c(c2-c2ccnc(F)c2)CCC3)cc1 [Example 45]	21%	90%	95%	95%	100%		
O=C(CC1CC1)Nc1cc(-c2c(-c3ccc(F)cc3)nn3c2COCC3)ccn1 [Example 113]		70%	90%	94%		78%	efficacy in % (Sphaerotheca fuliginea; in vivo): 98%
c1csc(-c2nn3c(c2-c2ccncc2)CCCC3)c1 [Example 62]	35%	80%	94%	95%	100%	78%	
COCC(=O)Nc1cc(-c2c(-c3ccc(F)cc3)nn3c2CCOC3(C)C)ccn1 [Example 82]		70%	89%	94%		88%	efficacy in % (Sphaerotheca fuliginea; in vivo): 95%
CC(C)Nc1cc(-c2c(-c3cccc(F)c3)nn3c2CCC3)ccn1 [Example 56]	27%	80%			92%		
Fc1cccc(-c2nn3c(c2-c2ccnc(F)c2)CCC3)c1 [Example 54]	0%		80%		100%		

Reference: patent publication US8507472B2 (priority 2010, dated 2013)
